We go through four compounds from PMC12331786, “Component characterization of Smilax glabra Roxb., and its inhibitory activity against Helicobacter pylori through targeted suppression of its secreted urease” (Frontiers in Cellular and Infection Microbiology, 2025).

A word on the IC50: it is the concentration that gives 50% inhibition. High values mean weaker potency in that assay, low ones greater potency in that assay. A word on the MIC: it is the smallest concentration in the dilution series that meets the test's criterion for growth inhibition. A higher MIC goes with a need for much substance. The Ki is a measure of affinity in units of concentration, obtained from inhibition or displacement. Lower therefore signals tighter binding.

For test [1], the target named is T1, jack bean urease (JBU) (Canavalia ensiformis, UniProt P07374).
T1 construct: purchased Sigma Aldrich
T1 sequence (P07374 whole entry, looked up): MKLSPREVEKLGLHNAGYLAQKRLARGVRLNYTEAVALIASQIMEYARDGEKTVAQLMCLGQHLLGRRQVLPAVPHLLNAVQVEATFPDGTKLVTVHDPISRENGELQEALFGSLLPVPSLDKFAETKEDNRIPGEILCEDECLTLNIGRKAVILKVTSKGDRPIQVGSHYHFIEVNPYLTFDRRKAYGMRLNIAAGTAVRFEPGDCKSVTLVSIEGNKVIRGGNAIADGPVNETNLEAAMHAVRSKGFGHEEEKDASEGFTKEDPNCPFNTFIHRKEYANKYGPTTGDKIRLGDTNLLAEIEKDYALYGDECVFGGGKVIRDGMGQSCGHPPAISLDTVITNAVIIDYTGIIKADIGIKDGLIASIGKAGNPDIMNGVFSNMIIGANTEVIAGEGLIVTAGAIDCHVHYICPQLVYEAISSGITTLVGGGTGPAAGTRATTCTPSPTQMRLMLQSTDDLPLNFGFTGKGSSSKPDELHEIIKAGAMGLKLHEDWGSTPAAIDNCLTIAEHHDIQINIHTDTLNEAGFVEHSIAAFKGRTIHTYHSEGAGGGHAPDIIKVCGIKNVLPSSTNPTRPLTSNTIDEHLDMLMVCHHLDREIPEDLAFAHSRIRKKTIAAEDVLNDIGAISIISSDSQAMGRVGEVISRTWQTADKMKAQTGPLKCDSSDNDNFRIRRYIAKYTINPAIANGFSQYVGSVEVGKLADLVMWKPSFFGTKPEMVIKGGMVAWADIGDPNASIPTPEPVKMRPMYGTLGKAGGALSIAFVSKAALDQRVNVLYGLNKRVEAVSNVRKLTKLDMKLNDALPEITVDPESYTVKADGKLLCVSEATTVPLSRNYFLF
Nature of the test: biochemical. The class given is biochemical. The source says:
Campylobacter agar medium was purchased from Thermo Fisher Scientific. Acetylhydroxamic acid (AHA), jack bean urease (JBU, type III with specific activity 40.3 U/mg solid) and urea were obtained from Sigma Aldrich. Boric acid (BA) and sodium fluoride (NaF) were purchased from Maclin (Shanghai, China). Dithiothreitol (DTT) and L-cysteine (L-cys) were obtained from Solaibao (Beijing, China). Glutathione (GSH) was obtained from Meilun (Dalian, China). HEPES (Amresco >99%) was from BioFroxx. All chemicals and reagents were of analytic purity.
(§1) The protein concentration of HPU was tested utilizing BCA protein detection kit. Standard urease test mixture consists of 150 mM urea in HEPES buffer (20 mM). HPU solution of varying concentrations was mixed with 150 mM urea as the substrate in a HEPES buffer (20 mM), and then reacted at 37 °C for 20 min. Urease vitality was assessed based on ammonia levels generated during the reaction. Ultimately, residual urease activity was measured by modified Berthelot (phenol hypochlorite) at 595 nm. This experiment was performed three times in parallel.
(§2) Test drug solution with equal volume and different concentration was mixed with urease and incubated in a 96-well plate at 37°C for 20 min. AHA was used as the positive control, while urease with urea (no depressor) served as the negative control. Moreover, urea solution (150 mM) was admixed and coincubated at ambient temperature for 20 min. Residual urease activity was measured via using the modified Berthelot method. The percentage of residual activity (RA%) was calculated as (A^sample - A^blank)/(A^negative control - A^blank)×100%, where A^blank represents the background absorbance without urease. Calculating the half-maximal inhibitory concentration (IC50) of the depressor to assess the impact of the test drug towards enzyme activity. Each experiment was conducted in triplicate for validation.

Test [2] addresses T2, H. pylori urease (HPU) (Helicobacter pylori, UniProt P69996).
T2 construct: The resulting HPU preparation represents a crude enzyme extract; endogenous in cells; host or cells: H. pylori strain ATCC 43504 (crude enzyme extract, method of Matsubara et al. 2003)
Nature of the test: biochemical. Type of test: biochemical, H. pylori strain ATCC 43504. How it is done: H. pylori was inoculated in Campylobacter agar and grown on Columbia agar with appropriate bovine serum albumin at 37°C, 98% humidity, and low aerobic conditions (5% O2, 10% CO2, and 85% N2) for 72 hours. Three days later, H. pylori was collected by scraping and then suspended in phosphate buffered saline (PBS). Besides, the H. pylori concentration was calibrated to 1×10^8 CFU/mL by turbidimetric method. Standard HPU was extracted from H. pylori strain ATCC 43504 following the approach detailed by [Matsubara et al. (2003)]. The resulting HPU preparation represents a crude enzyme extract, which has been widely adopted for initial inhibitor screening studies ([Li et al., 2018]; [Tan et al., 2017]; [Yu et al., 2015]). All inhibition assays included appropriate controls (enzyme blanks and solvent controls) to ensure specific detection of urease activity.
as §1, §2

Test [3] deals with H. pylori strains (ATCC 43504, NCTC 26695, ICDC 111001). Nature of the test: Minimal inhibitory concentration assay (agar dilution method). The class given is cell-based. The settings on record: Helicobacter pylori, H. pylori strain ICDC 111001. (In agar dilution, organisms are placed on agar that contains the substance at set levels.)
Test [4] addresses T1, jack bean urease (JBU). The test is described as follows: biochemical. The class given is biochemical. The source holds these as a separate data set.
Test [5] addresses T2, H. pylori urease (HPU). Nature of the test: biochemical. The class given is biochemical, H. pylori strain ATCC 43504. The protocol:
Residual urease activity was determined by pre-incubating test drug, urease mixture with a series of urea concentrations. Michaelis constant (KM ) and maximum velocity (vmax ) values are obtained from the Lineweaver-Burk plots of 1/v and 1/urea by plotting the reciprocal reaction velocity and substrate concentration. Variation characteristics of urease kinetic parameters KM and vmax were analyzed by adding different concentrations of test products to determine the type of inhibiting effect on HPU. Each sample was performed in triplicate.
This is another data set of the same source.

Values after ≈ are worked out from the molar mass of the structure shown. Like-named read-outs stand apart in the source and are kept apart here.

T2 sequence (P14916 whole entry): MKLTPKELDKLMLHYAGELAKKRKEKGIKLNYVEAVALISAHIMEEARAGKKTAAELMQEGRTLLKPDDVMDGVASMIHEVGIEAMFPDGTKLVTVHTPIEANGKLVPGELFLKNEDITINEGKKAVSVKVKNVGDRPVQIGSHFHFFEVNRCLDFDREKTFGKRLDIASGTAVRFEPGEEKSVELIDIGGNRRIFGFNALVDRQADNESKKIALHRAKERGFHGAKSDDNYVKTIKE
T2 sequence (P69996 whole entry): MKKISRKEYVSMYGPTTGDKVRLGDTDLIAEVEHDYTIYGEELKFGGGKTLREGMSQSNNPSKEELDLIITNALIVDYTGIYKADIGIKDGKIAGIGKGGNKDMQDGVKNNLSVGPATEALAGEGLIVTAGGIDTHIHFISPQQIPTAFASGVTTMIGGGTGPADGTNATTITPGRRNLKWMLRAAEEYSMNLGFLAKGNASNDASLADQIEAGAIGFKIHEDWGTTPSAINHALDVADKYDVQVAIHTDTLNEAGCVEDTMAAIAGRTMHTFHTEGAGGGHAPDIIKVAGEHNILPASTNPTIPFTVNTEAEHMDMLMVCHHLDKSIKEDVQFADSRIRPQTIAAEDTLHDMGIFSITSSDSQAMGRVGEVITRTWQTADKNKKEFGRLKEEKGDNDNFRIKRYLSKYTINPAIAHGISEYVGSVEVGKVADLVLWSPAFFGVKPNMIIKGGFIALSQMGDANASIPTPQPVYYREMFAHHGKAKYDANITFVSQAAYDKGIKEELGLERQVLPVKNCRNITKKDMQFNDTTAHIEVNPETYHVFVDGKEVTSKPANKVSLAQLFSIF

`CC(=O)NO` [AHA, Acetylhydroxamic acid, reference compound]: the IC50 in test [1] (JBU, positive control) came to 1.56 ± 0.10 µg/mL; in test [2] (HPU, positive control), 4.93 ± 0.11 µg/mL.
Regarding `Cc1ncc([N+](=O)[O-])n1CCO` [Metronidazole], the MIC in test [3] and in test [3] (pH 7.2) was 2 µg/mL (≈ 11.7 µM) throughout.
Turning to `C[C@@H]1O[C@@H](O[C@H]2C(=O)c3c(O)cc(O)cc3O[C@@H]2c2ccc(O)c(O)c2)[C@H](O)[C@H](O)[C@H]1O` [astilbin], the Ki in test [4] came to 200 ± 10 µM; in test [5] it was 870 ± 10 µM. Moreover, the results for the Kis in test [4] (JBU) and in test [5] (HPU) were 1.17 ± 0.10 mM and 0.87 ± 0.01 mM, respectively. For the same compound, the Inhibition type entry was “mixed” in test [4] (JBU, Lineweaver-Burk analysis) and “non-competitive” in test [5] (HPU, Lineweaver-Burk analysis). Besides, the IC50 came to 2220 ± 20 µM in test [1] and 1470 ± 10 µM in test [2]. The “Strength of urease inhibition relative to engeletin” value in test [2] (urease, HPU/JBU not given) is recorded as “more than three times as strongly”.
Turning to `C[C@@H]1O[C@@H](O[C@H]2C(=O)c3c(O)cc(O)cc3O[C@@H]2c2ccc(O)cc2)[C@H](O)[C@H](O)[C@H]1O` [engeletin], the IC50 in test [1] was 6670 ± 10 µM; in test [2], 5890 ± 10 µM.
